Patent US7893069B2, “Substituted imidazo[2,1-b]thiazole compounds and uses thereof” (Gruenenthal GmbH, priority 2006, dated 2011)
Counter-ions that a name gives are not always drawn.

What follows are molecules tested against T1, mGluR5 receptor (pig) (Sus scrofa, UniProt I3LUI7) (assay: [3H]-MPEP binding assay, pig brain homogenate). Details: displacement of 5 nM [3H]-MPEP, 450 μg protein from pig brain homogenate, 60 min, room temperature; read-out: IC50 [3H]-MPEP bond mGluR5 receptor (pig).
T1 construct: 450 μg protein from brain homogenate is incubated with 5 nM; from tissue; host or cells: pig brain halves without medulla, cerebellum and pons; homogenate, differential centrifugation
T1 sequence (I3LUI7 19-1212): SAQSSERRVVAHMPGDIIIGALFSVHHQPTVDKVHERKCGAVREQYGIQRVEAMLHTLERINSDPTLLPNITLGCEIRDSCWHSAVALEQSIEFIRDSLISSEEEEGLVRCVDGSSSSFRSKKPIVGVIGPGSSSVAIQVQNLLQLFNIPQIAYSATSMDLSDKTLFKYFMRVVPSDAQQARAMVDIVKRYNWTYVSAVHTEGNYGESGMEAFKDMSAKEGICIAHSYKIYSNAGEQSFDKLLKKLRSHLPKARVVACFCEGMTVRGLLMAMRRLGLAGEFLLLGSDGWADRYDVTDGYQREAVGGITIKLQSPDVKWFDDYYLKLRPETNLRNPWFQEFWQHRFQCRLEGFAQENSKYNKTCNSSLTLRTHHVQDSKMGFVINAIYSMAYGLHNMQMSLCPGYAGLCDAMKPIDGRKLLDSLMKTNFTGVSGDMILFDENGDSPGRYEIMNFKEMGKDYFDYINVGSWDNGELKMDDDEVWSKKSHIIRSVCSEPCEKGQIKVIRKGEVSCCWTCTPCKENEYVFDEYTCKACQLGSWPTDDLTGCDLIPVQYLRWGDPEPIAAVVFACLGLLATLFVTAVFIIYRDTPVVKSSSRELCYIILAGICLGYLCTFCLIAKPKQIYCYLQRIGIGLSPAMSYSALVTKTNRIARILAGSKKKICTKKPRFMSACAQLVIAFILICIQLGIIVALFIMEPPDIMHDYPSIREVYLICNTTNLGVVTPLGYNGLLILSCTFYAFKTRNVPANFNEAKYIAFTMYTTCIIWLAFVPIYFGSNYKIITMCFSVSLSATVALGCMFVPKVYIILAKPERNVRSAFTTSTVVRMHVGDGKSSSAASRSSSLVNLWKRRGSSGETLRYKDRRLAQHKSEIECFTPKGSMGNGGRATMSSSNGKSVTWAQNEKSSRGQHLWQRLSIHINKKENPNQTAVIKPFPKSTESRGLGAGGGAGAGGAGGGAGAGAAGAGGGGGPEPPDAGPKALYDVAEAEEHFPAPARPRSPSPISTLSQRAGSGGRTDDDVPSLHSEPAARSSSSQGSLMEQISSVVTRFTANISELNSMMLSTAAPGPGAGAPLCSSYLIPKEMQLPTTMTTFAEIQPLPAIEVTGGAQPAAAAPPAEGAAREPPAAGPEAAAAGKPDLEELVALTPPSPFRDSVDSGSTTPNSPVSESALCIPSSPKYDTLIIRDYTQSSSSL
Protocol: Substituted imidazo[2,1-b]thiazole compounds corresponding to the foregoing formula I are likewise particularly preferred, which, after 60 minutes of incubation in 450 μg protein from pig brain homogenate at a temperature between 20° C. and 25° C. in a concentration of less than 2500 nM, preferably less than 1000 nM, particularly preferably less than 700 nM, very particularly preferably less than 100 nM, even more preferably less than 70 nM, bring about a 50-percent displacement of [^3H]-2-methyl-6-(3-methoxyphenyl)-ethynylpyridine which is present in a concentration of 5 nM. The determination of the displacement of [^3H]-2-methyl-6-(3-methoxyphenyl)-ethynyl-pyridine is performed as described hereinafter in the section Pharmacological Methods, I. Method for determining the inhibition of [^3H]-MPEP-bonding in the mGluR5 receptor bonding assay.
1. Method for Determining the Affinity to the mGluR5 Receptor
Pig brain homogenate is produced by homogenization (Polytron PT 3000, Kinematica AG, 10,000 rpm for 90 seconds) of pig brain halves without medulla, cerebellum and pons in buffer pH 8.0 (30 mM Hepes, Sigma, order no. H3375+1 tablet complete to 100 ml, Roche Diagnostics, order no. 1836145) in ratio 1:20 (brain weight/volume) and differential centrifugation at 900×g and 40,000×g. In each case, 450 μg protein from brain homogenate is incubated with 5 nM ^3-[H]-MPEP (Tocris, order no. R1212) (MPEP=2-methyl-6-(3-methoxyphenyl)-ethynylpyridine) in 250 μl incubation batches in 96 well microtitration plates and the compounds to be tested (10 μM in the test) in buffer (as above) at room temperature for 60 min.
Thereafter, the batches are filtered with the help of a Brandel Cell Harvester (Brandel, TYP Robotic 9600) on unifilter plates with glass fibre filter mats (Perkin Elmer, order no. 6005177) and subsequently washed with buffer (as above) 3 times with in each case 250 μl per sample. The filter plates are subsequently dried for 60 min at 55° C. 30 μL Ultima Gold™ scintillator is subsequently added per well (Packard BioScience, order no. 6013159) and the samples are measured after 3 hours on the β-counter (Mikrobeta, Perkin Elmer). The unspecific bond is determined by addition of 10 μM MPEP (Tocris, order no. 1212).
With CC(C)(C)CC(C)(C)Nc1c(-c2ccc(C#Cc3ccccc3)s2)nc2sccn12 [Example 1, 6-(5-(phenylethynyl)thiophene-2-yl)-N-(2,4,4-trimethylpentane-2-yl)imidazo[2,1-b]thiazole-5-amine] the IC50 was 2.18 µM.
CC(C)(C)Nc1c(-c2ccc(C#Cc3ccccn3)s2)nc2sccn12 [Example 2, N-tert-butyl-6-(5-(pyridine-2-ylethynyl)thiophene-2-yl)imidazo[2,1-b]thiazole-5-amine] gave an IC50 of 0.0063 µM.
Molecule Cc1csc2nc(-c3ccc(C#Cc4ccccn4)s3)c(NC(C)(C)C)n12 [Example 3, N-tert-butyl-3-methyl-6-(5-(pyridine-2-ylethynyl)thiophene-2-yl)imidazo[2,1-b]thiazole-5-amine hydrochloride] has an IC50 of 0.012 µM.
In the case of Cc1sc2nc(-c3ccc(C#Cc4ccccn4)s3)c(NC(C)(C)C)n2c1C [Example 5, N-tert-butyl-2,3-dimethyl-6-(5-(pyridine-2-ylethinyl)thiophene-2-yl)-imidazo[2,1-b]thiazole-5-amine hydrochloride], the IC50 is reported as 0.017 µM.
CC(C)(C)Nc1c(-c2ccc(C#Cc3ccccn3)s2)nc2sc(Cl)cn12 [Example 6, N-tert-butyl-2-chloro-6-(5-(pyridine-2-ylethinyl)thiophene-2-yl)-imidazo[2,1-b]thiazole-5-amine hydrochloride] was tested, and the IC50 was 0.0099 µM.
COC(=O)c1cn2c(NC(C)(C)C)c(-c3ccc(C#Cc4ccccn4)s3)nc2s1 [Example 8, 5-(tert-butylamino)-6-(5-(pyridine-2-ylethinyl)thiophene-2-yl)-imidazo[2,1-b]thiazole-2-carbonic acid methylester hydrochloride] was tested, and the IC50 was 0.16 µM.
CC(C)(C)CC(C)(C)Nc1c(-c2ccc(C#Cc3ccccn3)s2)nc2sccn12 [Example 10] gave an IC50 of 0.1 µM.
Work on Cc1cn2c(NC(C)(C)C)c(-c3ccc(C#Cc4ccccn4)cc3)nc2s1 [Example 11, N-tert-butyl-2-methyl-6-(4-(pyridine-2-ylethynyl)phenyl)imidazo[2,1-b]thiazole-5-amine] yielded an IC50 of 0.02 µM.
Work on CC(C)(C)Nc1c(-c2ccc(C#Cc3ccccn3)o2)nc2sccn12 [Example 12, N-tert-butyl-6-(5-(pyridine-2-ylethynyl)furan-2-yl)imidazo[2,1-b]thiazole-5-amine] yielded an IC50 of 0.087 µM.
Nc1c(-c2ccc(C#Cc3ccccn3)s2)nc2sccn12 [Example 14, 6-(5-(pyridine-2-ylethynyl)thiophene-2-yl)imidazo[2,1-b]thiazole-5-amine] showed an IC50 of 0.14 µM.
CC(C)(C)Nc1c(-c2ccc(C#Cc3ncccn3)s2)nc2sccn12 [Example 15, N-tert-butyl-6-(5-(pyrimidine-2-ylethynyl)thiophene-2-yl)imidazo[2,1-b]thiazole-5-amine] gave an IC50 of 0.01 µM.
In the case of CC(C)(C)Nc1c(-c2ccc(C#Cc3ncccc3F)s2)nc2sccn12 [Example 16, N-tert-butyl-6-(5-((3-fluoropyridine-2-yl)ethynyl)thiophene-2-yl)imidazo[2,1-b]thiazole-5-amine], the IC50 is reported as 0.013 µM.
With CC(C)(C)Nc1c(-c2ccc(C#Cc3ccnc(F)c3)s2)nc2sccn12 [Example 17, N-tert-butyl-6-(5-((2-fluoropyridine-4-yl)ethynyl)thiophene-2-yl)imidazo[2,1-b]thiazole-5-amine] the IC50 was 0.018 µM.
In the case of CC(C)(C)Nc1c(-c2ccc(C#Cc3cccs3)s2)nc2sccn12 [Example 18, N-tert-butyl-6-(5-(thiophene-2-ylethynyl)thiophene-2-yl)imidazo[2,1-b]thiazole-5-amine], the IC50 is reported as 0.045 µM.
With CC(C)(C)Nc1c(-c2ccc(C#Cc3nccs3)s2)nc2sccn12 [Example 19, N-tert-butyl-6-(5-(thiazole-2-ylethynyl)thiophene-2-yl)imidazo[2,1-b]thiazole-5-amine] the IC50 was 0.024 µM.
In the case of CC(C)(C)Nc1c(-c2ccc(C#Cc3cccc(O)c3)s2)nc2sccn12 [Example 20, 3-((5-(5-(tert-butylamino)imidazo[2,1-b]thiazole-6-yl)thiophene-2-yl)ethynyl)phenol], the IC50 is reported as 0.17 µM.
With CC(C)(C)Nc1c(-c2ccc(C#Cc3cccc(C#N)c3)s2)nc2sccn12 [Example 21, 3-((5-(5-(tert-butylamino)imidazo[2,1-b]thiazole-6-yl)thiophene-2-yl)ethynyl)benzonitrile] the IC50 was 0.026 µM.
For Cc1cccnc1C#Cc1ccc(-c2nc3sccn3c2NC(C)(C)C)s1 [Example 23, N-tert-butyl-6-(5-((3-methylpyridine-2-yl)ethynyl)thiophene-2-yl)imidazo[2,1-b]thiazole-5-amine], the IC50 was 0.23 µM.

Same assay, conditions: test compound 10 μM; inhibition of [3H]-MPEP binding, pig brain homogenate
Cc1csc2nc(-c3ccc(C#Cc4ccccc4)s3)c(NC(C)(C)C)n12 [Example 13, N-tert-butyl-3-methyl-6-(5-(phenylethynyl)thiophene-2-yl)imidazo[2,1-b]thiazole-5-amine] gave an inhibition at 10 µM of 48%.
Molecule CCNc1c(-c2ccc(C#Cc3ccccc3)nc2)nc2sccn12 [Example 22, N-ethyl-6-(6-(phenylethynyl)pyridine-3-yl)imidazo[2,1-b]thiazole-5-amine] has an inhibition at 10 µM of 82%.

These molecules were tested on rat (assay: Formalin test in rats (phase 2, chronic pain component)). Details: iv, administered 30 min before formalin, observed 21 to 27 min after formalin injection.
Format: in vivo
Protocol: 2a. Formalin Test in Rats The formalin test (Dubuisson, D. and Dennis, S. G., 1977, Pain, 4, 161-174) represents a model for acute and chronic pain. A biphasic nociceptive reaction, which is recorded by observation of three clearly differentiable behavioural patterns, is induced by a single formalin injection into the dorsal side of a rear paw in freely mobile test animals. The reaction has two phases: Phase 1=Immediate reaction (duration up to 10 min; paw shaking, licking), Phase 2=Late reaction (after a rest phase; likewise, paw shaking, licking; duration up to 60 min). The 1st phase reflects a direct stimulation of the peripheral nocisensors with high spinal nociceptive input or glutamate release (acute pain phase); the 2nd phase reflects a spinal and peripheral hypersensitisation (chronic pain phase). In the investigations presented here, the chronic pain component (phase 2) was evaluated. Formalin with a volume of 50 μl and a concentration of 5% is administered subcutaneously into the dorsal side of the right rear paw of each animal. The substances to be tested are administered 30 min before the formalin injection orally (p.o), intravenously (i.v.) or intraperitoneally (i.p.). The specific changes in behavior such as lifting and shaking the paw, shifts in weight of the animal as well as biting and licking reactions are observed and registered in the period of observation from 21 to 27 min after formalin injection. The various forms of behavior are summarized in the so-called pain rate (PR), which, relative to the sub-intervals of 3 min, represents the calculation of an average nociception reaction. […] The group size is 10 animals (n=10). 2b. Formalin Test in Mice
For CC(C)(C)Nc1c(-c2ccc(C#Cc3ccccn3)s2)nc2sccn12 [Example 2, N-tert-butyl-6-(5-(pyridine-2-ylethynyl)thiophene-2-yl)imidazo[2,1-b]thiazole-5-amine], the ED50 was 0.47 mg/kg.

Same assay, conditions: p.o., 10 mg/kg, administered 30 min before formalin
In the case of CC(C)(C)Nc1c(-c2ccc(C#Cc3ccccn3)s2)nc2sccn12 [Example 2, N-tert-butyl-6-(5-(pyridine-2-ylethynyl)thiophene-2-yl)imidazo[2,1-b]thiazole-5-amine], the “Formalin test (rat) p.o. Reduction in the nociceptive behavior over controls at 10 mg/kg” value is reported as 66%.
